Data published in patent publication US20120157396A1, “PYRAZINAMIDE FOR IMMUNOSTIMULATION AND THE TREATMENT OF LEISHMANIASES” (priority 2009, published 2012).
Read-outs that look alike come from different tables or passages of the source.

Experiments:
[1] = system: L. major amastigotes; test: L. major amastigotes within J774 cells, parasite survival; format: cell-based; conditions: for MIC50: Leishmania major
Procedure: To distinguish between leishmaniostatic and leishmanicidal effects, a time course survival curve was generated for J774 cultures infected with L. major.
Amastigotes were generated by infecting J774 murine macrophages. Infections were carried after seeding cells in 8-well Labtek chambers (Thermo Physic Scientific, Rochester N.Y.) at a concentration of 5×10^4 cells/well. To avoid multiplication, cells were incubated with mitomycin C at a concentration of 0.8 μg/ml for 16 h. Infective-stage promastigotes (metacyclics) of L. major were isolated from stationary cultures (4-5 day-old) by Ficoll enrichment, added to macrophage cultures (5 promastigotes: 1 cell) and kept overnight at 37° C. in the presence of 5% CO2 and DMEM with 10% FCS. Sixteen hours later, non-internalized promastigotes were then washed and replaced by culture medium containing the drug. Forty-eight hours later, wells were detached from the slides, stained with Diff-Quick (Dade Behring, Newark, Del.) and counted under light microscope. Parasite burden was determined by observation under light microscopy (1000×) as the number of amastigotes per one hundred J774 cells. Percentage of survival of amastigotes and MIC50 were calculated as above.

[2] = system: J774 cells; test: J774 cell activation, surface markers by flow cytometry; format: cell-based, murine; conditions: 10 and 100 μM, with or without L. major
Procedure: Because of the strong in vivo effect of PZA, we studied the effect of treatment on macrophages. First, we looked at activation markers and cytokine secretion by J774 cells (a murine macrophage cell line) following treatment with PZA (10 and 100 μM) in the presence or absence of L. major infection (1:5 macrophage:parasite ratio) were examined. As a positive control, cells were exposed to a mixture of IFN-γ and LPS, known to increase the level of activation. Expression of surface molecules was determined in unstimulated cells, and on infected, untreated cultures. Twenty-four hours after infection and/or treatment, cells were collected and stained with fluorescent antibodies against the co-stimulatory molecules CD80 and CD86, as well as MHC Class II, and analyzed by flow cytometry.
J774 cells or bone marrow-derived cells were seeded onto 24-well plates at a concentration of 5×10^5 cells/ml. Twenty-four hours later, PZA was added to the wells at different concentrations in the absence or presence of L. major (1:5 parasite ratio). In some experiments, J774 cells were treated with amphotericin B (0.1, 0.5, or 1 μg/ml). […] For each sample, at least 50,000 cells were analyzed. The data were collected and analyzed using CELLQuest software and a FACScalibur flow cytometer (Becton Dickinson, San Jose, Calif.).

[3] = system: J774 cells; test: Cytokine (ELISA) and nitric oxide (Griess test) production in J774 cells; format: cell-based, murine; conditions: for production of cytokines (IL-12, TNF-α) and NO release: J774 cells, irrespective of infection (FIG. 14)
Procedure: The ability of J774 cells to produce cytokines in response to infection and/or treatment was also determined. Cells were infected, treated or activated as described above. The amount of the proinflammatory cytokines IL-12 and TNF-α (implicated in Thl response and parasite killing), as well as the repressive cytokine IL-10, was determined by ELISA in the culture supernatants. The level of nitric oxide was also determined in the same supernatants. PZA treatment alone increased cytokine production, especially IL-12 and TNF-α and NO release. […] Finally, to test the specificity of the immune activation by PZA, we determined the effect that amphotericin B treatment had on activation and cytokine expression by J774 cells.
(§1) J774 cells or bone marrow-derived cells were seeded onto 24-well plates at a concentration of 5×10^5 cells/ml. Twenty-four hours later, PZA was added to the wells at different concentrations in the absence or presence of L. major (1:5 parasite ratio). In some experiments, J774 cells were treated with amphotericin B (0.1, 0.5, or 1 μg/ml). Two control groups were also included in this experiment: a positive control of activation consisting in a group of uninfected cells treated with 100 ng/ml LPS and 10 IU IFN-γ as a positive control of activation, and a negative control of activation, consisting in uninfected, untreated cells. Cell cultures were maintained overnight, and then cultured for an additional 6 h with brefeldin A (10 μg/ml), harvested by scraping and fixed in 2% paraformaldehyde. Prior to staining, cells were incubated with an anti-Fc III/II receptor and 10% normal mouse serum (NMS) in PBS containing 0.1% BSA, 0.01% NaN3. Cells were permeabilized with saponin and stained for the surface markers CD80 (clone 16-10A1), CD86 (clone GL1), MHCI (clone 28-14-8), MHCII (clone M5/114.15.2) and for the cytokines IL-12p40/p70 (clone C17.8) and IL-10 (clone JESS-16E3). Incubations were carried out for 30 min on ice. All antibodies were purchased from BD Biosciences or eBioscience. For each sample, at least 50,000 cells were analyzed. The data were collected and analyzed using CELLQuest software and a FACScalibur flow cytometer (Becton Dickinson, San Jose, Calif.).

[4] = system: bone marrow-derived macrophages; test: Cytokine and NO production in bone marrow-derived macrophages; format: cell-based, C57BL/6 mice; design: unit not given here; conditions: macrophage, drug 100 μM
Procedure: (§2) Bone marrow cells were obtained and were grown in the presence of the cytokines M-CSF or GM-CSF to induce differentiation of macrophages or dendritic cells, respectively. The study of the immune response of dendritic cells was included because of their importance for the initiation of the immune response against L. major. […] Again, this effect was rescued by the treatment of macrophages with compounds of formula I, namely, either PZA or 5-Cl PZA.
(§3) Parasite and cell culture. L. major clone V1 (MHOM/IL/80/Friedlin) promastigotes were grown at 26° C. in medium 199 supplemented with 20% heat-inactivated fetal calf serum (FCS, Gemini, Sacramento), 100 U/ml penicillin, 100 μg/ml streptomycin, 2 mM L-glutamine, 40 mM Hepes, 0.1 mM adenine (in 50 mM Hepes) and […] hemin (in 50% triethanolamine). The macrophage murine cell line J774 (Cat. No. TIB-67TM) was cultured in DMEM (Sigma-Aldrich, St. Louis, Mo.) with 10% FCS, 100 U/ml penicillin, 100 μg/ml streptomycin and 2 mM glutamine (Sigma-Aldrich) at 37° C. under 5% CO2 atmosphere. Culture medium was changed twice per week. Subcultures were performed when monolayers covered 90% of the bottom of culture flasks. For experiments involving macrophages and dendritic cells, bone marrow was obtained from C57BL/6 mouse femurs and grown for 6-8 days in RPMI 1640 supplemented as above in the presence of 10% L929 conditioned medium (to generate macrophages) or 20 ng/ml GM-CSF (to generate dendritic cells).
as §1

[5] = system: bone marrow-derived dendritic cells; test: Cytokine and NO production in bone marrow-derived dendritic cells; format: cell-based, C57BL/6 mice; design: unit not given here; conditions: dendritic cell, drug 100 μM
Procedure: as §2, §3, §1

[6] = system: bone marrow-derived macrophages; test: Cytokine and NO production in bone marrow-derived macrophages; format: cell-based, C57BL/6 mice; design: unit not given here; conditions: macrophage, drug 100 μM; remark: listed apart in the source
[7] = L. major-infected J774, PZA 10 μM
[8] = L. major-infected J774, PZA 100 μM

NC(=O)c1cnc(Cl)cn1 [5-Cl PZA, 5-chloro pyrazinamide]
MIC50 reduced relative to PZA ([1]; L. major amastigotes within J774 cells): 5 fold
MIC50 for PZA analogs ([1]; L. major amastigotes within J774 cells (Table Ia)): 2.1 μM
expression of costimulatory molecules CD80, CD86 and MHC Class II [2]: enhanced
proinflammatory cytokines stimulated relative to PZA ([3]; IL-2 production (FIG. 9B), also in Leishmania-infected macrophages): 2 ×
production of cytokines (IL-12, TNF-α) and NO release [3]: increased
IL-10 production ([4]; infected with L. major (Lm)): 499 ± 312
IL-12 production ([4]; infected with L. major (Lm)): 1821 ± 645
IL-10 production ([4]; uninfected): 415 ± 210
IL-12 production ([4]; uninfected): 1767 ± 526
IL-10 production ([5]; infected with L. major (Lm)): 342 ± 398
IL-12 production ([5]; infected with L. major (Lm)): 2121 ± 945
IL-10 production ([5]; uninfected): 265 ± 213
IL-12 production ([5]; uninfected): 1962 ± 765
NO production ([6]; infected with L. major (Lm)): 1599 ± 812
TNF-α production ([6]; infected with L. major (Lm)): 1928 ± 444
NO production ([6]; uninfected): 1145 ± 721
TNF-α production ([6]; uninfected): 1598 ± 542

NC(=O)c1cnccn1 [PZA, pyrazinamide]
increase in MIC50 of amastigotes versus promastigotes ([1]; 48 hours post infection): 10 fold
MIC50 ([1]; 48 h, amastigote in J774, 48 h, read-out: MIC50): 10.2 µg/mL
MIC50 ([1]; L. major amastigotes within J774 cells (Table Ia), read-out: MIC50 for PZA analogs): 9.5 µM
percentage of survival compared to untreated control ([1]; amastigote in J774, PZA 1 μg/ml, 48 h): 89 ± 12%
percentage of survival compared to untreated control ([1]; amastigote in J774, PZA 12.5 μg/ml, 48 h): 47 ± 12%
percentage of survival compared to untreated control ([1]; amastigote in J774, PZA 100 μg/ml, 48 h): 23 ± 10%
percentage of survival compared to untreated control ([1]; amastigote in J774, PZA 1000 μg/ml, 48 h): 20 ± 15%
expression of costimulatory molecules CD80, CD86 and MHC Class II [2]: increased expression
production of cytokines (IL-12, TNF-α) and NO release [3]: increased
IL-10 production [3, 7]: 109 ± 39 pg/mL
IL-12 production [3, 7]: 253 ± 68 pg/mL
Nitric Oxide production [3, 7]: 289 ± 55 pg/mL
TNF-α production [3, 7]: 259 ± 163 pg/mL
IL-10 production [3, 8]: 112 ± 44 pg/mL
IL-12 production [3, 8]: 299 ± 55 pg/mL
Nitric Oxide production [3, 8]: 498 ± 74 pg/mL
TNF-α production [3, 8]: 489 ± 154 pg/mL
IL-10 production ([3]; uninfected J774, PZA 10 μM): 112 ± 45 pg/mL
IL-12 production ([3]; uninfected J774, PZA 10 μM): 178 ± 38 pg/mL
Nitric Oxide production ([3]; uninfected J774, PZA 10 μM): 254 ± 44 pg/mL
TNF-α production ([3]; uninfected J774, PZA 10 μM): 245 ± 159 pg/mL
IL-10 production ([3]; uninfected J774, PZA 100 μM): 145 ± 56 pg/mL
IL-12 production ([3]; uninfected J774, PZA 100 μM): 359 ± 65 pg/mL
Nitric Oxide production ([3]; uninfected J774, PZA 100 μM): 476 ± 52 pg/mL
TNF-α production ([3]; uninfected J774, PZA 100 μM): 377 ± 105 pg/mL
IL-10 production ([4]; infected with L. major (Lm)): 199 ± 120
IL-12 production ([4]; infected with L. major (Lm)): 921 ± 445
IL-10 production ([4]; uninfected): 155 ± 21
IL-12 production ([4]; uninfected): 867 ± 546
IL-10 production ([5]; infected with L. major (Lm)): 203 ± 60
IL-12 production ([5]; infected with L. major (Lm)): 1035 ± 785
IL-10 production ([5]; uninfected): 185 ± 63
IL-12 production ([5]; uninfected): 956 ± 145
NO production ([6]; infected with L. major (Lm)): 699 ± 112
TNF-α production ([6]; infected with L. major (Lm)): 921 ± 345
NO production ([6]; uninfected): 543 ± 221
TNF-α production ([6]; uninfected): 758 ± 246
